In publication PMC10791743, “Selective CK1α degraders exert antiproliferative activity against a broad range of human cancer cell lines” (Nature Communications, 2024):
Where “and” joins values, the source holds several entries; their conditions need not be identical. Equal entries are not always repeated.

Legend:
[1] = tested on: panel of 9 human cancer cell lines (HD-MB03, MB004, MB002, MHH-CALL4, MOLM-13, TF-1, HEL, OCI-AML3, AML193); test: Molecular glue library screening, CellTiter-Glo cell viability, 72 h; format: cell-based; details: CTG, dose-response
Experimental: We screened our molecular glue library (3630 compounds) against a panel of 9 pediatric cancer cell lines to identify molecules displaying cell-selective sensitivities. In addition to the four cell lines we previously described (MB002, MB004, HD-MB03, and MHHCALL-4)[27], we included five additional AML cell lines (MOLM-13, TF-1, HEL, OCI-AML3, and AML193) to cover a broader range of genetic diversity and cancer vulnerabilities. The library screening was performed in high throughput (384-well plates) by incubating the cells with compounds for 72 h and assessing cell viability via CellTiter-Glo (CTG) in a dose–response manner, as reported previously.
The primary screen was performed in 384-well format using the CellTiter Glo (CTG) luminescent cell viability assay (Promega) as previously described. 3630 compounds from the St. Jude proprietary molecular glue library were screened against 9 human cancer cell lines (HD-MB03, MB004, MB002, MHH-CALL4, MOLM-13, TF-1, HEL, OCI-AML3, AML193). Each cell line was cultured in the complete medium recommended by the vendor and seeded in Corning 8804 BC white 384-well assay plates at densities of 1000, 1000, 1500, 7500, 1250, 156, 625, 1250, 1250 cells per well for HD-MB03, MB004, MB002, MHH-CALL4, MOLM-13, TF-1, HEL, OCI-AML, AML193, respectively. After overnight incubation at 37 °C in a humidified 5% CO2 incubator, cells were treated with compounds in dose–response format using a Pintool on a Biomek FX^P Laboratory Automation Workstation (Beckman Coulter). After 72 h of incubation, cell proliferation was assessed using a CellTiter-Glo (CTG) luminescent cell viability assay (Promega) according to the manufacturer’s instructions. Luminescence signal was measured using an EnVision plate reader (PerkinElmer).

[2] = Pharmacokinetics in female CD1 mice; format: in vivo, mouse; details: female CD1 mice
Experimental: Three mice were housed in each cage. […] Temperature and humidity were recorded by an auto-controlled data logger system. All the animals were provided a laboratory rodent diet (Altromin, Germany). Reverse osmosis water treated with ultraviolet light was provided ad libitum. Total 27 mice (n = 9/group) were divided into three groups as Group 1, Group 2, and Group 3 with a sparse sampling design (3 mice/time points). […] The formulation vehicle for IV was 5% v/v NMP, 5% v/v Solutol HS-15 and 90% v/v Normal saline, and for PO & IP was 10%v/v NMP, 10%v/v Solutol HS-15. 50%v/v PEG-400 and 30%v/v HPβCD (20%w/v) in saline. […] Immediately after blood collection, plasma was harvested by centrifugation at 12,300×g, 10 min at 4 °C and samples were stored at −70 ± 10 °C until bioanalysis. Concentrations of SJ3149 in mouse plasma samples were determined by fit-for-purpose LC–MS/MS method. Non-Compartmental-Analysis tool of Phoenix WinNonlin® (Version 8.3) was used to assess the pharmacokinetic parameters. Peak plasma concentration (Cmax) and time for the peak plasma concentration (Tmax) were the observed values. The area under the concentration–time curve (AUClast) was calculated by the linear trapezoidal rule. The terminal elimination rate constant, ke was determined by regression analysis of the linear terminal portion of the log plasma concentration-time curve. Clearance was estimated as Dose/AUCinf and Vss as CL*MRT.

MOLM-13 cells = test: MOLM-13 cell viability assay (CTG, 72 h); format: cell-based, human; set-up: key to Cell viability in MOLM-13 cells / cell viability, dose-response replicate values: % viability = 100 − % activity, normalized to controls; details: for cell viability, dose-response replicate values: MOLM-13 WT, listed as CC-220
Experimental: The primary screen was performed in 384-well format using the CellTiter Glo (CTG) luminescent cell viability assay (Promega) as previously described. […] After overnight incubation at 37 °C in a humidified 5% CO2 incubator, cells were treated with compounds in dose–response format using a Pintool on a Biomek FX^P Laboratory Automation Workstation (Beckman Coulter). […] Luminescence signal was measured using an EnVision plate reader (PerkinElmer). […]
number per well and incubated overnight at 37 °C in a humidified 5 % CO2 incubator. Compounds were transferred to the assay plate from a dose-response plate using a Labcyte Echo 650 Acoustic Liquid Handler (Beckman Coulter , USA). […]
using Promega’s CellTiter-Glo reagent according to the manufacturer’s recommendation.
Luminescence was measured on the Envision plate reader (PerkinElmer, USA). Raw luminescence relative light unit (RLU) values for each compound at each concentration were normalized to obtain % activity using the following equation (1): 100 × [(mean(negctrl) – compound)/(mean (negctrl) – mean (posctrl))]. The % activity was converted to % viability using the following equation (2):
(100 – % activity), and then pooled from replicate experiments prior to fitting. Here, negctrl and posctrl refer to the negative (DMSO) and positive controls (staurosporine) on each plate. Dose-response curves were fit to the Hill equation using the GraphPad Prism (version 10). […]

[3] = single intraperitoneal 50 mg/kg, 0.5 hr
[4] = single intraperitoneal 50 mg/kg, 1 hr
[5] = single intraperitoneal 50 mg/kg, 2 hr
[6] = single intraperitoneal 50 mg/kg, 6 hr
[7] = single intraperitoneal 50 mg/kg, 8 hr
[8] = single intraperitoneal 50 mg/kg, 24 hr

Cc1ccc(NC(=O)NCc2ccc3c(c2)CN(C2CCC(=O)NC2=O)C3=O)cc1Cl (stereo not shown) [CC-885]
Cell viability across the panel of AL and MB cell lines [1]: cytotoxic to all cell lines in the panel

O=C1CCC(N2C(=O)c3ccc(NS(=O)(=O)c4ccccc4OC(F)(F)F)cc3C2=O)C(=O)N1 (stereo not shown) [SJ6986]
Cell viability across the panel of AL and MB cell lines [1]: cytotoxic to all cell lines in the panel

O=C1CCC(N2Cc3cc(Nc4noc5ccccc45)ccc3C2=O)C(=O)N1 (stereo not shown) [SJ001043149]
Plasma Concentration, Mean [2, 3]: 4253.68 ng/mL | Plasma Concentration, individual animal [2, 3]: 2474.57 ng/mL and 2615.2 ng/mL and 7671.27 ng/mL | Plasma Concentration, Mean [2, 4]: 3788.89 ng/mL | Plasma Concentration, individual animal [2, 4]: 3408.76 ng/mL and 3558.82 ng/mL and 4399.09 ng/mL | Plasma Concentration, Mean [2, 5]: 3436.75 ng/mL | Plasma Concentration, individual animal [2, 5]: 3844.39 ng/mL and 3042 ng/mL and 3423.87 ng/mL | Plasma Concentration, individual animal ([2]; single intraperitoneal 50 mg/kg, 4 hr): 37.79e ng/mL and 613.87 ng/mL and 1233.77 ng/mL | Plasma Concentration, Mean ([2]; single intraperitoneal 50 mg/kg, 4 hr, average of two values): 22172 ng·h/mL | Plasma Concentration, Mean [2, 6]: 336.83 ng/mL | Plasma Concentration, individual animal [2, 6]: 224.92 ng/mL and 422.53 ng/mL and 363.03 ng/mL | Plasma Concentration, Mean [2, 7]: 626.18 ng/mL | Plasma Concentration, individual animal [2, 7]: 584.82 ng/mL and 376.02 ng/mL and 917.7 ng/mL | Plasma Concentration, individual animal ([2]; single intraperitoneal 50 mg/kg, 12 hr): 1.02e ng/mL and 119 ng/mL and 188.95 ng/mL | Plasma Concentration, Mean ([2]; single intraperitoneal 50 mg/kg, 12 hr, average of two values): 3695.5 ng·h/mL | Plasma Concentration, Mean [2, 8]: 14.86 ng/mL | Plasma Concentration, individual animal [2, 8]: 16.86 ng/mL and 11.98 ng/mL and 15.73 ng/mL | Plasma Concentration, Mean ([2]; single intravenous 3 mg/kg, 0.08 hr): 3540.18 ng/mL | Plasma Concentration, individual animal ([2]; single intravenous 3 mg/kg, 0.08 hr, 3 mg/kg): 3522.19 ng/mL and 3164.19 ng/mL and 3934.15 ng/mL | Plasma Concentration, Mean ([2]; single intravenous 3 mg/kg, 0.5 hr): 548.51 ng/mL | Plasma Concentration, individual animal ([2]; single intravenous 3 mg/kg, 0.5 hr, 3 mg/kg): 590.56 ng/mL and 721 ng/mL and 333.96 ng/mL | Plasma Concentration, individual animal ([2]; single intravenous 3 mg/kg, 1 hr, 3 mg/kg): 89.11 ng/mL and 82.85 ng/mL and 465.12e ng/mL | Plasma Concentration, Mean ([2]; single intravenous 3 mg/kg, 1 hr, average of two values): 2064 ng·h/mL | Plasma Concentration, Mean ([2]; single intravenous 3 mg/kg, 2 hr): 21.37 ng/mL | Plasma Concentration, individual animal ([2]; single intravenous 3 mg/kg, 2 hr, 3 mg/kg): 26.85 ng/mL and 22.73 ng/mL and 14.53 ng/mL | Plasma Concentration, Mean ([2]; single intravenous 3 mg/kg, 4 hr): 5.15 ng/mL | Plasma Concentration, individual animal ([2]; single intravenous 3 mg/kg, 4 hr, 3 mg/kg): 2.92 ng/mL and 9.75 ng/mL and 2.78 ng/mL | Plasma Concentration, individual animal ([2]; single intravenous 3 mg/kg, 8 hr, LLOQ 1.00 ng/mL, 3 mg/kg): BLQ and 2.43e ng/mL | Plasma Concentration, individual animal ([2]; single intravenous 3 mg/kg, 12 hr, LLOQ 1.00 ng/mL): BLQ | Plasma Concentration, individual animal ([2]; single intravenous 3 mg/kg, 24 hr, LLOQ 1.00 ng/mL): BLQ | Plasma Concentration, Mean ([2]; single oral 50 mg/kg, 0.5 hr): 1802.13 ng/mL | Plasma Concentration, individual animal ([2]; single oral 50 mg/kg, 0.5 hr, 50 mg/kg): 1597.22 ng/mL and 2494.42 ng/mL and 1314.74 ng/mL | Plasma Concentration, Mean ([2]; single oral 50 mg/kg, 1 hr): 635.82 ng/mL | Plasma Concentration, individual animal ([2]; single oral 50 mg/kg, 1 hr, 50 mg/kg): 300.99 ng/mL and 799.29 ng/mL and 807.18 ng/mL | Plasma Concentration, individual animal ([2]; single oral 50 mg/kg, 2 hr, 50 mg/kg): 207.45 ng/mL and 268.31 ng/mL and 77.73e ng/mL | Plasma Concentration, Mean ([2]; single oral 50 mg/kg, 2 hr, average of two values): 5709.1 ng·h/mL | Plasma Concentration, Mean ([2]; single oral 50 mg/kg, 4 hr): 35.43 ng/mL | Plasma Concentration, individual animal ([2]; single oral 50 mg/kg, 4 hr, 50 mg/kg): 57.72 ng/mL and 27.57 ng/mL and 21 ng/mL | Plasma Concentration, individual animal ([2]; single oral 50 mg/kg, 6 hr, 50 mg/kg): 5.43e ng/mL and 17.18 ng/mL and 23.01 ng/mL | Plasma Concentration, Mean ([2]; single oral 50 mg/kg, 6 hr, average of two values): 482.4 ng·h/mL | Plasma Concentration, individual animal ([2]; single oral 50 mg/kg, 8 hr, 50 mg/kg): 6.11 ng/mL and 16.97 ng/mL and 1.39e ng/mL | Plasma Concentration, Mean ([2]; single oral 50 mg/kg, 8 hr, average of two values): 277 ng·h/mL | Plasma Concentration, Mean ([2]; single oral 50 mg/kg, 12 hr): 3.98 ng/mL | Plasma Concentration, individual animal ([2]; single oral 50 mg/kg, 12 hr, 50 mg/kg): 3.44 ng/mL and 4.89 ng/mL and 3.6 ng/mL | Plasma Concentration, individual animal ([2]; single oral 50 mg/kg, 24 hr, LLOQ 1.00 ng/mL, 50 mg/kg): 2.03e ng/mL and BLQ

O=C1CC[C@H](N2Cc3c(OCc4ccc(CN5CCOCC5)cc4)cccc3C2=O)C(=O)N1 [iberdomide, reference compound]
Effect on MOLM-13 cell viability (cytotoxicity) (MOLM-13 cells; CTG 72 h): very little effect | cell viability, dose-response replicate values (MOLM-13 cells; Concentration 0.00053416): 104.205 and 101.273 and 105.756 | cell viability, dose-response replicate values (MOLM-13 cells; Concentration 0.00160248): 116.013 and 103.828 and 106.347 | cell viability, dose-response replicate values (MOLM-13 cells; Concentration 0.00480744): 99.9393 and 109.095 and 93.7856 | cell viability, dose-response replicate values (MOLM-13 cells; Concentration 0.0144223): 103.939 and 96.4969 and 110.266 | cell viability, dose-response replicate values (MOLM-13 cells; Concentration 0.0432669): 111.735 and 98.8709 and 109.735 | cell viability, dose-response replicate values (MOLM-13 cells; Concentration 0.129801): 112.307 and 99.7991 and 100.005 | cell viability, dose-response replicate values (MOLM-13 cells; Concentration 0.389402): 95.4783 and 95.9453 and 89.9456 | cell viability, dose-response replicate values (MOLM-13 cells; Concentration 1.16821): 93.0089 and 93.9287 and 92.6782 | cell viability, dose-response replicate values (MOLM-13 cells; Concentration 3.50462): 93.5137 and 89.0055 and 86.6893 | cell viability, dose-response replicate values (MOLM-13 cells; Concentration 10.5139): 95.8132 and 82.1796 and 91.7179

Nc1cccc2c1C(=O)N(C1CCC(=O)NC1=O)C2=O (stereo not shown) [pomalidomide]
Cell viability across the panel of AL and MB cell lines [1]: inactive
